Measured values: US11634393B2, “Substituted tolyl fungicides” (FMC CORPORATION, priority 2018, dated 2023)

Key:
[1] = system: Puccinia recondita f. sp. tritici; experiment: Test B: wheat leaf rust, spray on wheat seedlings, disease control rating; type: in vivo; settings: Rate 10 ppm, 100 = 100% disease control, 0 = no disease control relative to the controls; for pest or weed control at 10 ppm: Puccinia recondita, 192 h
Excerpt: (§1) General protocol for preparing test suspensions for Tests A-F: the test compounds were first dissolved in acetone in an amount equal to 3% of the final volume and then suspended at the desired concentration (in ppm) in acetone and purified water (50/50 mix by volume) containing 250 ppm of the surfactant PEG400 (polyhydric alcohol esters). The resulting test suspensions were then used in Tests A-F.
The test solution was sprayed to the point of run-off on wheat seedlings. The following day the seedlings were inoculated with a spore suspension of Puccinia recondita f. sp. tritici (the causal agent of wheat leaf rust) and incubated in a saturated atmosphere at 20° C. for 24 h, and then moved to a growth chamber at 20° C. for 7 days, after which time disease ratings were made.
(§2) A rating of 100 indicates 100% disease control and a rating of 0 indicates no disease control (relative to the controls). A dash (-) indicates the compound was not tested.

Phakopsora pachyrhizi = experiment: Test D: Asian soybean rust, spray on soybean seedlings, disease control rating; type: in vivo; settings: Rate 10 ppm, 100 = 100% disease control, 0 = no disease control relative to the controls; for pest or weed control at 10 ppm: Phakopsora pachyrhizi, 216 h
Excerpt: as §1
The test solution was sprayed to the point of run-off on soybean seedlings. The following day the seedlings were inoculated with a spore suspension of Phakopsora pachyrhizi (the causal agent of Asian soybean rust) and incubated in a saturated atmosphere at 22° C. for 24 h and then moved to a growth chamber at 22° C. for 8 days, after which time visual disease ratings were made.
as §2

Row | Molecule | Test B disease control rating [1] [%] | Test D disease control rating (Phakopsora pachyrhizi) [%] | pest or weed control at 10 ppm [1] [%] | pest or weed control at 10 ppm (Phakopsora pachyrhizi) [%]
1 | methyl N-[[5-[1-(2,6-difluoro-4-methoxyphenyl)-1H-pyrazol-3-yl]-2-methylphenyl]methyl]carbamate [Compound 33] | 99 | 100 | – | –
2 | COC(=O)NCc1cc(-c2ccn(-c3c(F)cc(OC4CCCCC4)cc3F)n2)ccc1C [Compound 91] | 86 | 79 | – | –
3 | COC(=O)NCc1cc(-c2ccn(-c3c(C)cc([N+](=O)[O-])cc3C)n2)ccc1C [Compound 35] | – | – | 0 | 0
4 | COC(=O)NCc1cc(-c2ccn(-c3c(Br)cc(I)cc3Br)n2)ccc1C [Compound 136] | – | – | 19 | 59
5 | COC(=O)NCc1cc(-c2ccn(-c3c(F)cc(SC)cc3F)n2)ccc1C [Compound 27] | – | – | 99 | 100
6 | COC(=O)NCc1cc(-c2ccn(-c3c(F)cc(OC(C)C)cc3F)n2)ccc1C [Compound 14, methyl N-[[5-[1-[2,6-difluoro-4-(1-methylethoxy)phenyl]-1H-pyrazol-3-yl]-2-methylphenyl]methyl]carbamate] | – | – | 100 | 100
7 | COC(=O)NCc1cc(-c2ccn(-c3c(F)cc([N+](=O)[O-])cc3Cl)n2)ccc1C [Compound 37] | – | – | 26 | 0
8 | COC(=O)NCc1cc(-c2ccn(-c3c(F)cc(OCC4CCCO4)cc3F)n2)ccc1C (centres unmarked) [Compound 23] | 68 | 25 | – | –
9 | COC(=O)NCc1cc(-c2ccn(-c3c(C)cc(Cl)cc3C)n2)ccc1C [Compound 49] | – | – | 68 | 99
10 | COC(=O)NCc1cc(-c2ccn(-c3c(F)cc(SC)cc3SC)n2)ccc1C [Compound 28] | – | – | 0 | 100
11 | COC(=O)NCc1cc(-c2ccn(-c3c(F)cc(OC(F)(F)C(F)F)cc3F)n2)ccc1C [Compound 29] | 100 | 100 | – | –
12 | COC(=O)NCc1cc(-c2ccn(-c3c(Cl)cccc3Br)n2)ccc1C [Compound 60] | – | – | 68 | 100
13 | COC(=O)NCc1cc(-c2ccn(-c3c(F)cc(CO)cc3F)n2)ccc1C [Compound 71, methyl N-[[5-[1-[2,6-difluoro-4-(hydroxymethyl)phenyl]-1H-pyrazol-3-yl]-2-methylphenyl]methyl]carbamate] | – | – | 0 | 25
14 | C=C(C)c1cc(F)c(-n2ncc(-c3ccc(C)c(CNC(=O)OC)c3)n2)c(F)c1 [Compound 110] | 95 | 100 | – | –
15 | COC(=O)NCc1cc(-c2ccn(-c3c(Cl)cccc3Cl)n2)ccc1C [Compound 44] | – | – | 68 | 100
16 | COC(=O)NCc1cc(-c2ccn(-c3c(F)cc(OC(C)(C)C)cc3F)n2)ccc1C [Compound 93] | 100 | 100 | – | –
17 | COC(=O)NCc1cc(-c2ccn(-c3c(Br)cccc3Br)n2)ccc1C [Compound 58] | – | – | 68 | 100
18 | COC(=O)NCc1cc(-c2cnn(-c3c(F)cc(C(C)=NOC(C)C)cc3F)n2)ccc1C [Compound 143] | 74 | 100 | – | –
19 | COC(=O)NCc1cc(-c2ccn(-c3c(F)cc(N)cc3Cl)n2)ccc1C [Compound 39] | – | – | 0 | 0
20 | COC(=O)NCc1cc(-c2ccn(-c3c(F)cc(OC4CCCC4)cc3F)n2)ccc1C [Compound 90] | 86 | 100 | – | –
21 | COC(=O)NCc1cc(-c2ccn(-c3c(F)cc(F)cc3F)n2)ccc1C [Compound 16] | – | – | 99 | 100
22 | CCC(C)Oc1cc(F)c(-n2ccc(-c3ccc(C)c(CNC(=O)OC)c3)n2)c(F)c1 (centres unmarked) [Compound 92] | 100 | 100 | – | –
23 | C#Cc1cc(F)c(-n2ccc(-c3ccc(C)c(CNC(=O)OC)c3)n2)c(F)c1 [Compound 53, methyl N-[[5-[1-(4-ethynyl-2,6-difluorophenyl)-1H-pyrazol-3-yl]-2-methylphenyl]methyl]carbamate] | – | – | 100 | 100

Row | Molecule | Test B disease control rating [1] [%] | Test D disease control rating (Phakopsora pachyrhizi) [%] | pest or weed control at 10 ppm [1] [%] | pest or weed control at 10 ppm (Phakopsora pachyrhizi) [%]
24 | COC(=O)NCc1cc(-c2ccn(-c3c(C)cccc3Br)n2)ccc1C [Compound 61] | – | – | 68 | 97
25 | COC(=O)NCc1cc(-c2ccn(-c3c(C)cc(OC)cc3C)n2)ccc1C [Compound 40] | – | – | 0 | 99
26 | COC(=O)NCc1cc(-c2cnn(-c3c(F)cc(CC(C)C)cc3F)n2)ccc1C [Compound 109] | – | – | 91 | 100
27 | CON=C(C)c1cc(F)c(-n2ccc(-c3ccc(C)c(CNC(=O)OC)c3)n2)c(F)c1 [Compound 83, methyl N-[[5-[1-[2,6-difluoro-4-[1-(methoxyimino)ethyl]phenyl]-1H-pyrazol-3-yl]-2-methylphenyl]methyl]carbamate] | – | – | 100 | 100
28 | COC(=O)NCc1cc(-c2cn(-c3c(OC)cc(OC)cc3OC)nn2)ccc1C [Compound 127] | – | – | 0 | 0
29 | COC(=O)NCc1cc(-c2ccn(-c3c(F)cc(OC4COC4)cc3F)n2)ccc1C [Compound 21] | 55 | 100 | – | –
30 | COC(=O)NCc1cc(-c2ccn(-c3c(F)cc(C=O)cc3F)n2)ccc1C [Compound 67, methyl N-[[5-[1-(2,6-difluoro-4-formylphenyl)-1H-pyrazol-3-yl]-2-methylphenyl]methyl]carbamate] | – | – | 0 | 12
31 | COC(=O)NCc1cc(-c2ccn(-c3c(C)cc(N)cc3C)n2)ccc1C [Compound 38] | – | – | 0 | 0
32 | C=C(C)c1cc(Br)c(-n2ccc(-c3ccc(C)c(CNC(=O)OC)c3)n2)c(Br)c1 [Compound 137] | 0 | 77 | – | –
33 | COC(=O)NCc1cc(-c2ccn(-c3c(Cl)cc(Cl)cc3Cl)n2)ccc1C [Compound 57] | – | – | 74 | 100
34 | COC(=O)NCc1cc(-c2ccn(-c3c(F)cc(C(OC)C(C)=O)cc3F)n2)ccc1C (centres unmarked) [Compound 76] | 68 | 100 | – | –
35 | COC(=O)NCc1cc(-c2ccn(-c3c(F)cccc3I)n2)ccc1C [Compound 45] | – | – | 0 | 100
36 | COC(=O)NCc1cc(-c2ccn(-c3c(F)cc(C(F)F)cc3F)n2)ccc1C [Compound 87, methyl N-[[5-[1-[4-(difluoromethyl)-2,6-difluorophenyl]-1H-pyrazol-3-yl]-2-methylphenyl]methyl]carbamate] | – | – | 100 | 100
37 | COC(=O)NCc1cc(-c2ccn(-c3c(F)cc(Br)cc3F)n2)ccc1C [Compound 7, methyl N-[[5-[1-(4-bromo-2,6-difluorophenyl)-1H-pyrazol-3-yl]-2-methylphenyl]methyl]carbamate] | – | – | 100 | 100
38 | COC(=O)NCc1cc(-c2ccn(-c3c(F)cc(Cl)cc3Cl)n2)ccc1C [Compound 51] | – | – | 100 | 100
39 | COC(=O)NCc1cc(-c2ccn(-c3c(F)cc(NC(=O)OC)cc3F)n2)ccc1C [Compound 24] | 0 | 75 | – | –
40 | COC(=O)NCc1cc(-c2ccn(-c3c(F)cc(NC(C)=O)cc3F)n2)ccc1C [Compound 25] | 8 | 81 | – | –
41 | COC(=O)NCc1cc(-c2ccn(-c3c(F)cc(OCC4CC4)cc3F)n2)ccc1C [Compound 9] | 99 | 99 | – | –
42 | CNc1cc(F)c(-n2ccc(-c3ccc(C)c(CNC(=O)OC)c3)n2)c(F)c1 [Compound 36] | – | – | 68 | 100
43 | COC(=O)NCc1cc(-c2ccn(-c3c(F)cc(C(C)(C)F)cc3F)n2)ccc1C [Compound 97] | 100 | 100 | – | –
44 | C=C(C)c1cc(F)c(-n2ccc(-c3ccc(C)c(CNC(=O)OC)c3)n2)c(F)c1 [Compound 62] | 99 | 100 | – | –
45 | CCON=Cc1cc(F)c(-n2ccc(-c3ccc(C)c(CNC(=O)OC)c3)n2)c(F)c1 [Compound 80] | 100 | 100 | – | –
46 | COC(=O)NCc1cc(-c2ccn(-c3c(F)cc(Br)cc3Cl)n2)ccc1C [Compound 50] | – | – | 100 | 100
